# Laboratory results reported in ChEMBL document CHEMBL3351354, “From the covalent linkage of drugs to novel inhibitors of ribonucleotide reductase: synthesis and biological evaluation of valproic esters of 3'-C-methyladenosine” (Bioorg Med Chem Lett, 2014).
# pIC50, pKi: −log10 of the molar value. Activity calls are given as the source filed them. The calls are words filed in the database; no cut-off is given here.
# What was measured:
# [1] = system: K562; test: Growth inhibition of human K562 cells after 48 hrs by MTT assay; type: functional, cell-based
# [2] = Growth inhibition of human Caco2 cells after 48 hrs by MTT assay; type: functional, cell-based, Caco-2
# [3] = system: HL-60; test: Induction of cell cycle arrest in human HL60 cells assessed as accumulation at S phase at 100 uM after 24 hrs by propidium iodide staining based flow cytometry (reference value: 54%); type: functional
# [4] = system: HL-60; test: Induction of cell cycle arrest in human HL60 cells assessed as accumulation at G1 phase at 100 uM after 24 hrs by propidium iodide staining based flow cytometry (reference value: 32%); type: functional
# [5] = target: T1, Ribonucleotide reductase (Homo sapiens, UniProt P23921+Q7LG56); test: Competitive inhibition of human recombinant ribonucleotide reductase in presence of varying levels of ATP by Dixon plot; type: protein-complex assay
# T1 sequence (P23921 whole entry): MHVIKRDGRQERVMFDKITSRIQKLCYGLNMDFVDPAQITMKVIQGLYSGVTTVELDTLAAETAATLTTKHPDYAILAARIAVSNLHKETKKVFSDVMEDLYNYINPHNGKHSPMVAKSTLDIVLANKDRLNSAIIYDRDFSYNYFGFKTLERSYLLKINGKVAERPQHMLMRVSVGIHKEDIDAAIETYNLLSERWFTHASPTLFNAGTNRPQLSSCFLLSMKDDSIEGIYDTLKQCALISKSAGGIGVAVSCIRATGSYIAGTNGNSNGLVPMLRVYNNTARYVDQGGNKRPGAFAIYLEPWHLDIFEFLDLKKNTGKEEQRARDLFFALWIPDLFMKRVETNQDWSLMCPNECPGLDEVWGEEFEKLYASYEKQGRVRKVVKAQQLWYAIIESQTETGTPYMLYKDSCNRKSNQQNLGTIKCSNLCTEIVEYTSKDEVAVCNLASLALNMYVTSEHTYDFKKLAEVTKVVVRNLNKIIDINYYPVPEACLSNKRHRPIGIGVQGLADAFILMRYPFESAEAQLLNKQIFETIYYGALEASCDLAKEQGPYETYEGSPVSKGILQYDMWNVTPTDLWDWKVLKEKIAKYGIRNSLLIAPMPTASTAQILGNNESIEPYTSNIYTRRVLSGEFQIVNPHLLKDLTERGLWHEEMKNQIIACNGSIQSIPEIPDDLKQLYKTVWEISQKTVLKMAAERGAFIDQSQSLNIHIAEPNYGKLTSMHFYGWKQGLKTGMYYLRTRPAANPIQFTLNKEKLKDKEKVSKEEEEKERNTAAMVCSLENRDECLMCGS
# T1 sequence (Q7LG56 whole entry): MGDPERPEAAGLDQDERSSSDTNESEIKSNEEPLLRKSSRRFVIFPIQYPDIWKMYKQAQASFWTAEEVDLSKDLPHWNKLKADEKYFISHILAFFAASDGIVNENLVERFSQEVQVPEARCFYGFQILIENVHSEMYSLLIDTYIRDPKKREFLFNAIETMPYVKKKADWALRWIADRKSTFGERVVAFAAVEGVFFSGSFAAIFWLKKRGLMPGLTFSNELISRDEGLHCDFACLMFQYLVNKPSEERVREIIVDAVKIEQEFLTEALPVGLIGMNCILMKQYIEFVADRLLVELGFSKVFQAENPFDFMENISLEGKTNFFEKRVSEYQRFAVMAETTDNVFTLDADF
# [6] = system: HT-29; test: Growth inhibition of human HT-29 cells after 48 hrs by MTT assay; type: functional, cell-based
# [7] = target: T2, Ribonucleotide reductase (Homo sapiens) (UniProt P23921+Q7LG56); test: Inhibition of human recombinant ribonucleotide reductase at 1.2 mM in presence of 1 mM ATP; type: protein-complex assay
# [8] = Half life in RPMI-1640 medium containing 10% fetal calf serum assessed as compound disappearance by HPLC-DAD-ESI-MS method; type: ADME, Bos taurus; conditions: cattle
# [9] = system: HL-60; test: Induction of cell cycle arrest in human HL60 cells assessed as accumulation at G2M phase at 100 uM after 24 hrs by propidium iodide staining based flow cytometry (reference value: 12%); type: functional
# [10] = system: MCF7; test: Growth inhibition of human MCF7 cells after 48 hrs by MTT assay; type: functional, cell-based
# [11] = target: T2, Ribonucleotide reductase (Homo sapiens); test: Inhibition of ribonucleotide reductase in human HL60 cells assessed as intracellular dNTP pools level at 0.3 mM after 1 hr by HPLC method; type: cell-based; conditions: HL-60
# [12] = Half life in pH 7.4 isotonic sodium phosphate buffer at 37 degC by HPLC-DAD-ESI-MS method; type: physicochemical
# [13] = system: HL-60; test: Induction of apoptosis in human HL60 cells after 24 to 48 hrs by acridine orange and ethidium bromide staining based fluorescence microscopy; type: functional, cell-based; conditions: hl-60
# [14] = system: HuT78; test: Growth inhibition of human HUT78 cells after 48 hrs by MTT assay; type: functional, cell-based
# [15] = target: T2, Ribonucleotide reductase (Homo sapiens); test: Inhibition of human recombinant ribonucleotide reductase at 1.2 mM in presence of dGTP; type: protein-complex assay
# [16] = target: T2, Ribonucleotide reductase (Homo sapiens); test: Inhibition of human recombinant ribonucleotide reductase at 1.2 mM in presence of 3 mM ATP; type: protein-complex assay
# [17] = Growth inhibition of human HL60 cells after 48 hrs by MTT assay; type: functional, cell-based, HL-60
# [18] = target: Histone deacetylase (Homo sapiens) (UniProt Q13547+O15379+Q9UBN7+Q92769+Q9UQL6+Q8WUI4+Q9BY41+Q96DB2+P56524+Q9UKV0+Q969S8); test: Inhibition of HDAC in human HL60 cells assessed as increase in histone H3 acetylation at 10 and 100 uM after 24 hrs by Western blotting method; type: cell-based; conditions: HL-60
# [19] = target: T2, Ribonucleotide reductase (Homo sapiens); test: Inhibition of human recombinant ribonucleotide reductase at 1.2 mM; type: protein-complex assay
# [20] = system: HeLa; test: Growth inhibition of human HeLa cells after 48 hrs by MTT assay; type: functional, cell-based
# [21] = system: HL-60; test: Induction of cell cycle arrest in human HL60 cells assessed as accumulation at S phase at 0.5 mM after 24 hrs by propidium iodide staining based flow cytometry (reference value: 54%); type: functional
# [22] = system: HL-60; test: Induction of cell cycle arrest in human HL60 cells assessed as accumulation at G1 phase at 0.5 mM after 24 hrs by propidium iodide staining based flow cytometry (reference value: 32%); type: functional
# [23] = system: HL-60; test: Induction of cell cycle arrest in human HL60 cells assessed as accumulation at G2M phase at 0.5 mM after 24 hrs by propidium iodide staining based flow cytometry (reference value: 12%); type: functional
compound,measurement,setting,value
CCCC(CCC)C(=O)OC[C@H]1O[C@@H](n2cnc3c(N)ncnc32)[C@H](O)[C@]1(C)O,pIC50,"[1]; Homo sapiens, K562, 48 h, read-out: IC50",3.70
same,pIC50,"[2]; Homo sapiens, Caco-2, 48 h, read-out: IC50",< 3.70
same,Activity,[3],44%
same,Activity,[4],42%
same,pKi,[5],3.40
same,pIC50,"[6]; Homo sapiens, HT-29, 48 h, read-out: IC50",< 3.70
same,inhibition,[7],Active
same,half-life,[8],> 3 days
same,Activity,[9],14%
same,pIC50,"[10]; Homo sapiens, MCF7, 48 h, read-out: IC50",< 3.70
same,inhibition,[11],Active
same,half-life,[12],> 3 days
same,AC50,[13],Not Active
same,pIC50,"[14]; Homo sapiens, HuT78, 48 h, read-out: IC50",3.85
same,inhibition,[15],inactive
same,inhibition,[16],inactive
same,pIC50,"[17]; Homo sapiens, HL-60, 48 h, read-out: IC50",4.17
same,inhibition,[18],inactive
same,inhibition,[19],Active
same,pIC50,"[20]; Homo sapiens, HeLa, 48 h, read-out: IC50",< 3.70
CCCC(CCC)C(=O)Nc1ncnc2c1ncn2[C@@H]1O[C@H](COC(=O)C(CCC)CCC)[C@@](C)(O)[C@H]1OC(=O)C(CCC)CCC,IC50,[1]; k562,ND(Insoluble)
same,IC50,[2]; caco-2,ND(Insoluble)
same,IC50,[6]; ht-29,ND(Insoluble)
same,IC50,[10]; mcf7,ND(Insoluble)
same,IC50,[14]; hut78,ND(Insoluble)
same,IC50,[17]; hl-60,ND(Insoluble)
same,IC50,[20]; hela,ND(Insoluble)
NC(=O)NO [HYDROXYUREA],Activity,[21],7%
same,Activity,[22],86%
same,Activity,[23],7%
